Test results published in patent publication EP1534672B1, “RETINOL DERIVATIVES, THEIR USE IN THE TREATMENT OF CANCER AND FOR POTENTIATING THE EFFICACY OF OTHER CYTOTOXIC AGENTS” (priority 2002, dated 2004).
Values joined by “and” are separate entries in the source; they are usually repeats but may differ in a detail not shown here. Equal entries are not always repeated. Structures can show the parent of a compound that is named as a salt. Where two headings read alike, the source gives them in different places. Marks after values point to notes of the source that are not given here.

Tested on: Human Breast Adenocarcinoma Cell Line MDA-MB-231
Assay: Drug cytotoxicity testing (viable cell count, trypan blue exclusion, cell growth inhibition)
Format: cell-based
Conditions: for IC50: calculated from three concentrations, read-out: IC50 mol/L (a); for cell growth inhibition reached on increase of the concentration, in (B): sodium salt, range 10^-9 to 10^-7 M, dilution in normal saline (B)
Experimental: MDA-MB-231 cells were propagated in MEM culture medium with 2 mM L-glutamine, 10% heat-inactivated fetal bovine serum (FBS) and antibiotics. DU 145 cells were cultured in MEM culture medium containing 2 mM L-glutamine, 1 mM sodium pyruvate, 10% FBS and antibiotics. SKOV-3 cells were cultured in McCoy's 5A culture medium, supplemented with 1,5 mM L-glutamine, 10% FBS and antibiotics. A549 cells were cultured in Ham's F-12 culture medium with 1 mM L-glutamine, 10% FBS and antibiotics. All media and supplements were purchased from Sigma-Aldrich (St.Louis, MO, USA). Cell propagation of all lines was carried out in Falcon™ 25 cm^2 cultivation flasks (Becton Dickinson Labware).
Drug cytotoxicity testing was carried out with using Falcon™ 96-well cultivation plates for adherent cells (Becton Dickinson Labware). These plates were seeded by cells either at 12 × 10^3 MDA-MB-231 cells/well, or at 12 × 10^3 DU 145 cells/well, or at 14 × 10^3 SKOV-3 cells/well, or at 10 × 10^3 A549 cells/well in a volume of 200 µL/well.
The cell cultures in cultivation plates were allowed to adhere for 24 hour of incubation. On day 1 after cell seeding, 2 µL solutions of the drugs to be tested in medium with 5% FBS was added to the cultures. In the control cultures, 2 µL of medium with 5% FBS was added as solvent control. The cells were incubated for 2 consecutive days. At the end of the incubation period adherent cells were detached by trypsinization and the number of viable cells was counted using trypan blue exclusion test and a hemocytometer. All data were derived from an average of three determinations each in six replicates. The results were expressed as mean cell number ± SE and the differences between control and test series evaluated by means of Student's t-test. The drug cytotoxicity was evaluated based on the extent of cell growth inhibition. The cell growth inhibition of the tested drugs was calculated as follows: Cell growth inhibition,% = (Control-TestSeries)/(Control) × 100 [formula]
In the case of comparative evaluation of cytotoxicity of the inventive compounds themselves and the formulation related to consecutive dilutions of their initial solutions before adding to the cultures, 2 µL solutions of the drugs to be tested in medium with 5% FBS, in normal saline and in saline with 2,3 mM CaCl2 were added to the cultures. In control cultures, 2 µL of medium with 5% FBS, normal saline and saline with 2,3 mM CaCl2 were added as solvent controls (negative controls). […] Therefore an average of negative controls was calculated. […] Therefore an average of positive controls was calculated (for each antibiotic).

[1] = cytotoxic drug alone 10^-7 mol/L, average of positive controls in medium with 5% FBS, normal saline and saline with 2,3 mM CaCl2, hydrochloride
[2] = cytotoxic drug alone 10^-8 mol/L, average of positive controls in medium with 5% FBS, normal saline and saline with 2,3 mM CaCl2, hydrochloride
[3] = cytotoxic drug alone 10^-9 mol/L, average of positive controls in medium with 5% FBS, normal saline and saline with 2,3 mM CaCl2, hydrochloride
[4] = Homo sapiens, MDA-MB-231, 48 h, compound alone, final concentration 10^-7 mol/L, working solutions in MEM with 5% FBS, two days, read-out: cell growth inhibition
[5] = Homo sapiens, MDA-MB-231, 48 h, compound alone, final concentration 10^-8 mol/L, working solutions in MEM with 5% FBS, two days, read-out: cell growth inhibition
[6] = Homo sapiens, MDA-MB-231, 48 h, compound alone, final concentration 10^-9 mol/L, working solutions in MEM with 5% FBS, two days, read-out: cell growth inhibition
[7] = compound alone, final concentration 10^-7 mol/L, working solutions in MEM with 5% FBS, two days
[8] = compound alone, final concentration 10^-8 mol/L, working solutions in MEM with 5% FBS, two days
[9] = compound alone, final concentration 10^-9 mol/L, working solutions in MEM with 5% FBS, two days
[10] = Homo sapiens, MDA-MB-231, compound alone 10^-7 mol/L, in B (normal saline), read-out: cell growth inhibition
[11] = Homo sapiens, MDA-MB-231, compound alone 10^-7 mol/L, read-out: Cell growth inhibition in A compared to that in B was increased by
[12] = Homo sapiens, MDA-MB-231, compound alone 10^-8 mol/L, in A (saline with […] CaCl2), read-out: cell growth inhibition
[13] = Homo sapiens, MDA-MB-231, compound alone 10^-8 mol/L, in B (normal saline), read-out: cell growth inhibition
[14] = Homo sapiens, MDA-MB-231, compound alone 10^-8 mol/L, read-out: Cell growth inhibition in A compared to that in B was increased by
[15] = Homo sapiens, MDA-MB-231, compound alone 10^-9 mol/L, in A (saline with […] CaCl2), read-out: cell growth inhibition
[16] = Homo sapiens, MDA-MB-231, compound alone 10^-9 mol/L, in B (normal saline), read-out: cell growth inhibition
[17] = Homo sapiens, MDA-MB-231, compound alone 10^-9 mol/L, read-out: Cell growth inhibition in A compared to that in B was increased by
[18] = compound alone 10^-7 mol/L, in B (normal saline)
[19] = compound alone 10^-8 mol/L, in B (normal saline)
[20] = compound alone 10^-9 mol/L, in B (normal saline)

COc1cccc2c1C(=O)c1c(O)c3c(c(O)c1C2=O)C[C@@](O)(C(=O)CO)C[C@@H]3O[C@H]1C[C@H](N)[C@H](O)[C@H](C)O1 [Doxorubicin, (8S,10S)-10-[(3-amino-2,3,6-trideoxy-α-L-lyxo-hexopyranosyl)oxy]-8-glycolyl-7,8,9,10-tetrahydro-6,8,11-trihydroxy-1-methoxy-5,12-naphtacenedione hydrochloride, reference compound]
IC50 (Homo sapiens, MDA-MB-231, as concentration of cytotoxic drug, alone or in formulation at molar ratio 1:6, medium with 5% FBS): 76 nM
inhibition at 0.1 µM (Homo sapiens, MDA-MB-231, cytotoxic drug 10^-7 mol/L (100 nM), alone or in formulation at molar ratio 1:6, working solutions in medium with 5% FBS, read-out: Cell Growth Inhibition, %): 53.6%
inhibition at 0.01 µM (Homo sapiens, MDA-MB-231, cytotoxic drug 10^-8 mol/L, alone or in formulation at molar ratio 1:6, working solutions in medium with 5% FBS, read-out: Cell Growth Inhibition, %): 26.4%
inhibition at 0.001 µM (Homo sapiens, MDA-MB-231, cytotoxic drug 10^-9 mol/L, alone or in formulation at molar ratio 1:6, working solutions in medium with 5% FBS, read-out: Cell Growth Inhibition, %): 13.8%
inhibition at 0.1 µM (Homo sapiens, MDA-MB-231, cytotoxic drug alone 10^-7 mol/L, average of positive controls in medium with 5% FBS, normal saline and saline with 2,3 mM CaCl2, read-out: Cell Growth Inhibition, %): 55.4%
inhibition at 0.01 µM (Homo sapiens, MDA-MB-231, cytotoxic drug alone 10^-8 mol/L, average of positive controls in medium with 5% FBS, normal saline and saline with 2,3 mM CaCl2, read-out: Cell Growth Inhibition, %): 29.4%
inhibition at 0.001 µM (Homo sapiens, MDA-MB-231, cytotoxic drug alone 10^-9 mol/L, average of positive controls in medium with 5% FBS, normal saline and saline with 2,3 mM CaCl2, read-out: Cell Growth Inhibition, %): 19.4%
IC50 (Homo sapiens, MDA-MB-231, cytotoxic drug alone, average of positive controls): 62 nM
Tumor Cell Number, × 10^3 (cytotoxic drug 10^-7 mol/L (100 nM), alone or in formulation at molar ratio 1:6, working solutions in medium with 5% FBS, hydrochloride): 26.2 ± 1.29 × 10^3
Cell Growth Inhibition, % (cytotoxic drug 10^-7 mol/L (100 nM), alone or in formulation at molar ratio 1:6, working solutions in medium with 5% FBS, hydrochloride, 0.1 µM): 53.0* %
Tumor Cell Number, × 10^3 (cytotoxic drug 10^-7 mol/L (100 nM), alone or in formulation at molar ratio 1:6, working solutions in medium with 5% FBS, listed as doxorubicin, hydrochloride): 23.6 ± 1.02 × 10^3
Tumor Cell Number, × 10^3 (cytotoxic drug 10^-8 mol/L, alone or in formulation at molar ratio 1:6, working solutions in medium with 5% FBS): 41.0 ± 1.50 × 10^3
Tumor Cell Number, × 10^3 (cytotoxic drug 10^-9 mol/L, alone or in formulation at molar ratio 1:6, working solutions in medium with 5% FBS): 48.0 ± 1.85 × 10^3
Cell Growth Inhibition, % [1]: 55.3* %
Tumor Cell Number, × 10^3 [1]: 25.5±0.71 × 10^3 and 25.2±1.56 × 10^3
Cell Growth Inhibition, % [2]: 27.3 * %
Tumor Cell Number, × 10^3 [2]: 40.4±1.65 × 10^3 and 41.0±0.96 × 10^3
Cell Growth Inhibition, % [3]: 19.1* %
Tumor Cell Number, × 10^3 [3]: 46.1±2.07 × 10^3 and 45.6±1.38 × 10^3
IC50 (cytotoxic drug alone, average of positive controls, hydrochloride): 64 nM

CCOC(=O)[C@H](CS(=O)(=O)O)NC(=O)/C=C(C)/C=C/C=C(C)/C=C/C1=C(C)CCCC1(C)C [compound I-1b, N-(all-trans-retlnoyl)-L-cysteic acid ethyl ester]
inhibition at 0.1 µM [4]: 46.7%
inhibition at 0.01 µM [5]: 44.2%
inhibition at 0.001 µM [6]: 39.2%
number of viable cells [7]: 30.5 ± 1.82 × 10^3
number of viable cells [8]: 31.9 ± 2.16 × 10^3
number of viable cells [9]: 34.8 ± 2.41 × 10^3

CC1=C(/C=C/C(C)=C/C=C/C(C)=C/C(=O)N[C@@H](CS(=O)(=O)O)C(=O)OC(C)C)C(C)(C)CCC1 [compound I-1c, N-(all-trans-retinoyl)-Lwcysteic acid isopropyl ester]
inhibition at 0.01 µM [5]: 46.9%
inhibition at 0.001 µM [6]: 40.6%
number of viable cells [7]: 28.9 ± 1.52 × 10^3
number of viable cells [8]: 30.4 ± 1.79 × 10^3
number of viable cells [9]: 34.0 ± 2.13 × 10^3

CCCOC(=O)[C@H](CS(=O)(=O)O)NC(=O)/C=C(C)/C=C/C=C(C)/C=C/C1=C(C)CCCC1(C)C [compound I-1d, N-(all-trans-retinoyl)-L-cysteic acid propyl ester]
inhibition at 0.1 µM [4]: 54.8%
inhibition at 0.01 µM [5]: 50.7%
inhibition at 0.001 µM [6]: 45.2%
number of viable cells [7]: 24.1 ± 1.46 × 10^3
number of viable cells [8]: 26.3 ± 1.67 × 10^3
number of viable cells [9]: 29.2 ± 1.89 × 10^3

CCCCOC(=O)[C@H](CS(=O)(=O)O)NC(=O)/C=C(C)/C=C/C=C(C)/C=C/C1=C(C)CCCC1(C)C [compound I-1e, N-(all-trans-retinoyl)-L-cysteic acid butyl ester]
inhibition at 0.1 µM [4]: 53.5%
inhibition at 0.01 µM [5]: 49.2%
inhibition at 0.001 µM [6]: 44.7%
number of viable cells [7]: 24.8 ± 1.34 × 10^3
number of viable cells [8]: 27.1 ± 1.75 × 10^3
number of viable cells [9]: 29.5 ± 2.18 × 10^3

CNC(=O)[C@H](CS(=O)(=O)O)NC(=O)/C=C(C)/C=C/C=C(C)/C=C/C1=C(C)CCCC1(C)C [compound I-1g, N-(all-trans-retinoyl)-L-cysteic acid methylamide]
inhibition at 0.01 µM [5]: 35.9%
inhibition at 0.001 µM [6]: 27.8%
inhibition at 0.1 µM [10]: 22.8%
inhibition at 0.1 µM [11]: 26.5%
inhibition at 0.01 µM [12]: 36.7%
inhibition at 0.01 µM [13]: 14.2%
inhibition at 0.01 µM [14]: 26.3%
inhibition at 0.001 µM [15]: 28.5%
inhibition at 0.001 µM [16]: 4.2%
inhibition at 0.001 µM [17]: 25.4%
number of viable cells [18]: 43.1 ± 2.03 × 10^3
number of viable cells [19]: 47.9 ± 2.86 × 10^3
number of viable cells [20]: 53.5 ± 3.21 × 10^3
cell growth inhibition reached when increasing the concentration (compound alone (sodium salt), concentration range 10^-9 to 10^-7 M): ~43%
number of viable cells [7]: 32.1 ± 1.72 × 10^3
number of viable cells [8]: 36.2 ± 1.95 × 10^3
number of viable cells [9]: 40.8 ± 2.14 × 10^3
cell growth inhibition reached on increase of the concentration, in (B): ~23%

CC1=C(/C=C/C(C)=C/C=C/C(C)=C\C(=O)N[C@@H](CS(=O)(=O)O)C(=O)O)C(C)(C)CCC1 [compound II-1, N-(13-cis-Retinoyl)-L-cysteic acid]
inhibition at 0.1 µM (Homo sapiens, MDA-MB-231, compound alone 10^-7 mol/L, in A (saline with […] CaCl2), read-out: cell growth inhibition): 42.7%
inhibition at 0.1 µM [10]: 32.2%
inhibition at 0.1 µM [11]: 15.5%
inhibition at 0.01 µM [12]: 41.3%
inhibition at 0.01 µM [13]: 30.6%
inhibition at 0.01 µM [14]: 15.4%
inhibition at 0.001 µM [15]: 37.4%
inhibition at 0.001 µM [16]: 25.5%
inhibition at 0.001 µM [17]: 16%
number of viable cells [18]: 38.6 ± 1.25 × 10^3
number of viable cells [19]: 39.5 ± 1.46 × 10^3
number of viable cells [20]: 42.4 ± 1.63 × 10^3
cell growth inhibition reached on increase of the concentration, in (B): ~32%

CCOC(=O)[C@H](CS(=O)(=O)O)NC(=O)\C=C(C)/C=C/C=C(C)/C=C/C1=C(C)CCCC1(C)C [compound II-1b, N-(13-cis-retinoyl)-L-cysteic acid ethyl ester]
inhibition at 0.1 µM [4]: 49.1%
inhibition at 0.01 µM [5]: 46.3%
inhibition at 0.001 µM [6]: 41.4%
number of viable cells [7]: 29.8 ± 1.70 × 10^3
number of viable cells [8]: 31.4 ± 1.94 × 10^3
number of viable cells [9]: 34.3 ± 1.88 × 10^3
